# Measured values as given in the supplement of paper PMC10307832.
# How the values were obtained:
# Test in all cases: relative viability (nuclei count vs DMSO), 5 days (fraction); higher = more cells survive
# Tivantinib + OSI-027 = compound: O=C1NC(=O)[C@@H](c2cn3c4c(cccc24)CCC3)[C@@H]1c1c[nH]c2ccccc12 [Tivantinib] + COc1cccc2cc(-c3nc([C@H]4CC[C@H](C(=O)O)CC4)n4ncnc(N)c34)[nH]c12 [OSI-027] (partner 0.5 µM)
# Method in brief: (§1)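 Cells from lung cancer lines were seeded into 1536-well plates and, one day later, dosed by pin tool. Treatments were either a single drug or a fixed dose of an anchor drug with five library-drug doses (not always all listed) in √10 steps. After 5 days, nuclei were stained in a one-step fixation (final 0.05% Triton X-100, 1% formaldehyde, 1 ug/ml Hoechst) and counted on 4× images, and relative viability is the treated-to-vehicle nuclei ratio, as the median of duplicate plates.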
# Crenolanib + Olaparib = compound: CC1(COc2ccc3c(c2)ncn3-c2ccc3cccc(N4CCC(N)CC4)c3n2)COC1 [Crenolanib] + O=C(c1cc(Cc2n[nH]c(=O)c3ccccc23)ccc1F)N1CCN(C(=O)C2CC2)CC1 [Olaparib] (partner 8 µM)
# Method in brief: as §1
# Tivantinib + Crizotinib = compound: O=C1NC(=O)[C@@H](c2cn3c4c(cccc24)CCC3)[C@@H]1c1c[nH]c2ccccc12 [Tivantinib] + C[C@@H](Oc1cc(-c2cnn(C3CCNCC3)c2)cnc1N)c1c(Cl)ccc(F)c1Cl [Crizotinib] (partner 1 µM)
# Method in brief: as §1
# Tivantinib + Trametinib = compound: O=C1NC(=O)[C@@H](c2cn3c4c(cccc24)CCC3)[C@@H]1c1c[nH]c2ccccc12 [Tivantinib] + CC(=O)Nc1cccc(-n2c(=O)n(C3CC3)c(=O)c3c(Nc4ccc(I)cc4F)n(C)c(=O)c(C)c32)c1 [Trametinib] (partner 0.02 µM)
# Method in brief: as §1
Cell Line,relative viability (Tivantinib + OSI-027; first compound 0.01 µM),relative viability (Tivantinib + OSI-027; first compound 0.03162 µM),relative viability (Tivantinib + OSI-027; first compound 0.1 µM),relative viability (Tivantinib + OSI-027; first compound 0.3162 µM),relative viability (Crenolanib + Olaparib; first compound 0.01 µM),relative viability (Crenolanib + Olaparib; first compound 0.1 µM),relative viability (Crenolanib + Olaparib; first compound 0.3162 µM),relative viability (Crenolanib + Olaparib; first compound 1 µM),relative viability (Tivantinib + Crizotinib; first compound 0.01 µM),relative viability (Tivantinib + Crizotinib; first compound 0.03162 µM),relative viability (Tivantinib + Crizotinib; first compound 0.1 µM),relative viability (Tivantinib + Crizotinib; first compound 0.3162 µM),relative viability (Tivantinib + Trametinib; first compound 0.01 µM),relative viability (Tivantinib + Trametinib; first compound 0.03162 µM),relative viability (Tivantinib + Trametinib; first compound 0.1 µM),relative viability (Tivantinib + Trametinib; first compound 0.3162 µM),relative viability (Crenolanib + Olaparib; first compound 0.03162 µM)
PC-3 [JPC-3],0.841,0.724,0.716,0.48,1.26,1.01,1.06,1.06,1.03,1.05,0.996,0.759,0.731,0.726,0.693,0.513,–
NCI-H520,0.318,0.221,0.261,0.261,0.367,0.33,0.288,0.338,0.797,0.764,0.758,1.05,0.798,0.723,0.576,0.701,0.258
NCI-H1666,0.83,0.743,0.876,0.687,0.764,0.723,0.692,0.749,0.955,1.03,0.993,0.992,0.815,0.786,0.827,0.814,0.717
NCI-H1792,0.777,0.685,0.595,0.547,0.439,0.334,0.757,0.384,1.02,0.948,0.828,0.932,0.421,–,0.394,0.37,0.397
NCI-H727,0.781,0.484,0.515,0.468,0.678,0.646,0.627,0.847,0.764,0.96,0.88,–,0.413,0.343,0.398,–,0.652
HCC-15,0.76,0.53,0.614,0.7,0.828,0.726,0.631,0.63,0.722,0.791,0.731,0.853,0.387,0.371,0.36,0.337,0.734
NCI-H647,0.792,0.618,0.574,0.83,0.477,0.511,0.802,0.586,1.18,1.07,1.03,0.995,0.462,0.411,0.416,0.369,0.512
NCI-H1650,0.681,0.535,0.634,0.532,0.677,0.659,0.82,0.607,1.07,0.903,1.04,0.984,0.451,0.663,0.666,0.536,0.84
NCI-H2347,0.48,0.386,0.418,0.475,0.555,0.536,0.59,0.636,0.756,0.564,0.74,0.674,0.246,0.316,0.231,0.248,0.457
LOU-NH91,0.657,0.709,0.729,0.465,0.943,0.837,0.971,0.905,0.746,0.729,0.705,0.53,0.724,0.762,0.81,0.691,0.88
H3255,0.711,0.551,0.571,–,0.57,0.552,0.586,0.531,0.905,0.922,0.763,–,–,0.5,0.642,0.234,0.541
NCI-H1975,0.751,0.752,0.611,0.691,0.768,0.73,0.726,0.731,0.938,0.929,0.924,1.05,0.323,0.338,0.33,0.298,0.699
NCI-H3122,0.985,0.914,0.93,0.207,0.678,0.641,0.727,0.61,0.271,0.275,0.252,0.272,0.219,0.216,0.199,0.202,0.622
NCI-H441,0.517,0.608,0.498,0.471,0.602,0.608,0.56,0.535,0.847,0.725,0.546,0.801,0.476,0.405,0.448,0.352,0.524
NCI-H2170,0.645,0.718,0.652,–,0.608,0.54,0.711,0.671,1.31,1.13,1.04,–,0.934,0.847,0.844,–,0.674
LC-2-ad,0.851,0.738,0.816,0.573,0.65,0.728,0.74,0.65,0.515,0.411,0.501,0.411,0.912,0.879,0.851,0.903,0.704
NCI-H358,0.839,0.94,0.634,0.195,0.641,0.529,0.678,0.603,0.651,0.574,0.709,0.301,0.127,0.124,0.147,0.128,0.594
PC-14,0.942,0.784,0.755,0.598,0.255,0.299,0.249,0.257,0.912,0.883,0.934,0.894,0.671,0.811,0.753,0.452,0.257
CAL-12T,0.791,0.541,0.634,0.256,0.746,0.721,0.771,0.725,0.711,0.774,0.714,0.36,0.451,0.269,0.359,0.183,0.694
